The target of one data set is Protein S100-A4 (Homo sapiens, UniProt P26447). The data set is described as follows: S100A4-myosin IIA binding inhibitor potency, dose response, biochemical, fluorescence polarization, cherry-picked hits (AID 687001). Type of data set: functional.
The target in data set [1] is T1, Sentrin-specific protease 1 (Homo sapiens, UniProt Q9P0U3). The data set is described as follows: potency of human SENP1 inhibitors, dose response, biochemical, kinetic FRET (AID 651697). Type of data set: functional. Conditions: read-out: IC50_Mean.
The target of data set [2] is T1, Sentrin-specific protease 1. Kind of data set: Dose response confirmation of small molecule inhibitors of the catalytic domain of the SUMO protease, SENP1 in a FRET assay. Type of data set: functional. To be noted: read-out: IC50_Mean.
For data set [3], the target named is Broad substrate specificity ATP-binding cassette transporter ABCG2 (Homo sapiens, UniProt Q9UNQ0). The data set is described as follows: ABCG2 efflux pump inhibitors, dose response, Ig-MXP3 cells, flow cytometry (AID 1690). The format is functional.
Data set [4] addresses T2, ATP-dependent translocase ABCB1 (Homo sapiens, UniProt P08183). Kind of data set: ABCB1 efflux pump inhibitor potency, dose response, Jurkat-DNR cells, JC-1, flow cytometry (AID 1689). The format is functional.
Another data set addresses T3, Streptokinase A (Streptococcus pyogenes serotype M1, UniProt P10520).
T3 sequence (P10520 whole entry): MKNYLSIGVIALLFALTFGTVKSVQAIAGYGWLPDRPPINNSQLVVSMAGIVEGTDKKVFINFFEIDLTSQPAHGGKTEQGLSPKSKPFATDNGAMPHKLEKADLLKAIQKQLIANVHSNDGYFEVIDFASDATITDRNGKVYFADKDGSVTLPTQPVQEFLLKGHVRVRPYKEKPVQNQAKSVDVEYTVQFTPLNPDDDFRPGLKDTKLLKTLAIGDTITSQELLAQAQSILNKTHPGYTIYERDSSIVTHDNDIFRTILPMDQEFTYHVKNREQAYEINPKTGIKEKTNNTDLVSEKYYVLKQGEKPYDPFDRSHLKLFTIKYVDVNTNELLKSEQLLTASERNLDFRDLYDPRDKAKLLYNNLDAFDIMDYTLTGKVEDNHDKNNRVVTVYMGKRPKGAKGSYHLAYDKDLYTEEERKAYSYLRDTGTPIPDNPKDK
The data set is described as follows: S. pyogenes streptokinase expression inhibitors, potency, dose response, plasminogen activation absorbance, OD405 (AID 1914).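 Note: secreted streptokinase activity via plasminogen activation per viability signal from cell pellet.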 Type of data set: functional, Streptococcus pyogenes M1 GAS.

The target in data set [5] is T4, Low molecular weight phosphotyrosine protein phosphatase (Homo sapiens, UniProt P24666).
T4 sequence (P24666 whole entry): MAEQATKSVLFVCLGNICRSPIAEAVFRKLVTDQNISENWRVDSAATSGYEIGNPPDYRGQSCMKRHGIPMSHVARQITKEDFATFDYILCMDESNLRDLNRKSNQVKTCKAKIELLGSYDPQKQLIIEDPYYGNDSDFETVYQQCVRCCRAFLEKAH
The format is functional. To be noted: read-out: IC50_Mean.

Data set [6] in a line: HeLa 2N DNA content increase, dose response, cell-based, IC50 (AID 1117349). Type of data set: functional.
Data set [7] is described as follows: inhibitors of firefly luciferase expression or activity, dose response, H4 neuroglioma cells, luminescence (AID 1990). Type of data set: functional, cell-based.
Data set [8] is described as follows: HeLa 4N DNA content increase, dose response, cell-based, IC50 (AID 1117351). The format is functional.
Data set [9] has as its system Streptococcus sp. 'group A'. The data set is described as follows: growth inhibition of control SK(-) GAS strain, dose response, counter-screen for streptokinase expression inhibitor project, luminescence, kanamycin, BacTiterGlo, confirmation (AID 1900). The format is functional, organism-based.
Another data set has as its target Cytochrome P450 2D6 (Homo sapiens, UniProt P10635).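 Note: CYP2D6 member of a cytochrome P450 panel assay.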
The test system of another data set is BJ. The data set is described as follows: cytotoxicity toward Ras-transformed BJeLR fibroblasts, dose response, cell-based, alamar blue fluorescence, cherrypicked samples (AID 2631).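 Note: confirmatory dose-response assay in RAS-dependent BJ fibroblasts engineered with TERT, LT and ST, with cytotoxicity read by fluorescence.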 Conditions: Homo sapiens. The format is functional. A general note: Alamar Blue is a resazurin reagent that responds to reducing activity.
Data set [10] is described as follows: Luminescence Cell-Based Dose Response HTS to Identify Inhibitors of 5'UTR Stem-Loop Driven Prion Protein mRNA Translation in H4 Neuroglioblastoma Cells. [Related pubchem assays: 1827 (Project Summary), 1813 (Primary HTS)]. Type of data set: functional.
Data set [11] concerns the target T4, Low molecular weight phosphotyrosine protein phosphatase. The format is functional. To be noted: read-out: IC50_Mean. The source holds these as a separate data set.
Data set [12] can be described thus: inhibitors of SNCA 5'UTR-driven reporter translation, confirmation, H4 neuroglioma cells, luminescence (AID 1988). Type of data set: functional, cell-based.
Another data set has as its target Cytochrome P450 2C9 (Homo sapiens, UniProt P11712).
For another data set, the system named is Streptococcus. Kind of data set: Group A Streptococcus viability loss, dose response, counter-screen for streptokinase expression inhibitor project, luminescence, BacTiterGlo (AID 1915).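 Note: potency for reduction of bacterial viability or growth.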 Type of data set: functional, organism-based. A general note: Counterscreens check selectivity or assay interference.
The target of a further data set is T5, Cytochrome P450 1A2 (Homo sapiens, UniProt P05177).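 Note: PubChem cytochrome P450 panel assay, CYP1A2 panel member.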
T5 sequence (P05177 whole entry): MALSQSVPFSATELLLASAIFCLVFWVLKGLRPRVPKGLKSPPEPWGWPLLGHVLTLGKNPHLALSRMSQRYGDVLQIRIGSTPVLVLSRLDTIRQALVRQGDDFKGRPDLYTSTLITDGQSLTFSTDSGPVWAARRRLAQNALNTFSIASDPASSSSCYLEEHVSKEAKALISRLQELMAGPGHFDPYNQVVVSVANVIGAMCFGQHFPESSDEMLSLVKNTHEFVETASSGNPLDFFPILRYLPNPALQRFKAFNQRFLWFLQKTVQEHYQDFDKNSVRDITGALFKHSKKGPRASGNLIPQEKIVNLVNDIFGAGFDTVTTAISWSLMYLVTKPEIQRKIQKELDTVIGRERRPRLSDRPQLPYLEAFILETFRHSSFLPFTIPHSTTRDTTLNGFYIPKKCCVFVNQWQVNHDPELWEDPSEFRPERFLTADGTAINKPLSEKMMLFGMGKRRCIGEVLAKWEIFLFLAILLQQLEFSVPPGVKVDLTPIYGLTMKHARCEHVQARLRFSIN

The nature of data set [13]: inhibitors of PGC1a acetylation in cells, dose response, cell-based, cherry-picked samples (AID 720514).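 Note: potency may reflect raised or lowered acetylation signal.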 The format is functional.
A further data set concerns the target Cytochrome P450 2C19 (Homo sapiens, UniProt P33261). The data set is described as follows: Cytochrome panel assay with activity outcomes. Panel member name: p450-cyp2c19 Compounds with AC50 equal or less than 10 uM are considered active. Type of data set: functional.
The target of data set [14] is T2, ATP-dependent translocase ABCB1. The data set is described as follows: ABCG2 efflux pump inhibitor potency, dose response, Ig-MXP3 cells, JC-1, flow cytometry, set 2 (AID 504566).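 Note: flow cytometry median green fluorescence of retained JC-1 dye; potency of efflux pump inhibition measured as rising substrate retention.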 The format is functional. Conditions: read-out: EC50_MICROM_. (In flow cytometry, cells or beads pass a laser one at a time.)
Data set [15] has the same target. Kind of data set: ABCB1 efflux inhibitor potency, dose response, Jurkat-DNR cells, JC-1, flow cytometry, set 2 (AID 504569).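 Note: potency of pump inhibitors that raise cellular JC-1 green fluorescence up to the nicardipine level.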 Type of data set: functional. To be noted: read-out: EC50_MICROM_.
Data set [16] deals with T6, Beta-lactamase (Pseudomonas aeruginosa, UniProt Q79MP6). The data set is described as follows: IMP-1 metallo-beta-lactamase inhibitors, dose response, selectivity assay for VIM-2 inhibitor project, biochemical, epi-absorbance (AID 1920).
Data set [17] addresses Beta-lactamase (Salmonella choleraesuis (strain SC-B67), UniProt Q5J463). Kind of data set: Epi-absorbance-based counterscreen for selective VIM-2 inhibitors: dose response biochemical high throughput screening assay to identify inhibitors of TEM-1 serine-beta-lactamase.
The target of data set [18] is T6, Beta-lactamase. The data set is described as follows: […] counterscreen for selective VIM-2 inhibitors: dose response biochemical high throughput screening assay to identify inhibitors of IMP-1 metallo-beta-lactamase.

Structures are written as SMILES. Calls of active or inactive are those of the source.

T2 sequence (P08183 whole entry): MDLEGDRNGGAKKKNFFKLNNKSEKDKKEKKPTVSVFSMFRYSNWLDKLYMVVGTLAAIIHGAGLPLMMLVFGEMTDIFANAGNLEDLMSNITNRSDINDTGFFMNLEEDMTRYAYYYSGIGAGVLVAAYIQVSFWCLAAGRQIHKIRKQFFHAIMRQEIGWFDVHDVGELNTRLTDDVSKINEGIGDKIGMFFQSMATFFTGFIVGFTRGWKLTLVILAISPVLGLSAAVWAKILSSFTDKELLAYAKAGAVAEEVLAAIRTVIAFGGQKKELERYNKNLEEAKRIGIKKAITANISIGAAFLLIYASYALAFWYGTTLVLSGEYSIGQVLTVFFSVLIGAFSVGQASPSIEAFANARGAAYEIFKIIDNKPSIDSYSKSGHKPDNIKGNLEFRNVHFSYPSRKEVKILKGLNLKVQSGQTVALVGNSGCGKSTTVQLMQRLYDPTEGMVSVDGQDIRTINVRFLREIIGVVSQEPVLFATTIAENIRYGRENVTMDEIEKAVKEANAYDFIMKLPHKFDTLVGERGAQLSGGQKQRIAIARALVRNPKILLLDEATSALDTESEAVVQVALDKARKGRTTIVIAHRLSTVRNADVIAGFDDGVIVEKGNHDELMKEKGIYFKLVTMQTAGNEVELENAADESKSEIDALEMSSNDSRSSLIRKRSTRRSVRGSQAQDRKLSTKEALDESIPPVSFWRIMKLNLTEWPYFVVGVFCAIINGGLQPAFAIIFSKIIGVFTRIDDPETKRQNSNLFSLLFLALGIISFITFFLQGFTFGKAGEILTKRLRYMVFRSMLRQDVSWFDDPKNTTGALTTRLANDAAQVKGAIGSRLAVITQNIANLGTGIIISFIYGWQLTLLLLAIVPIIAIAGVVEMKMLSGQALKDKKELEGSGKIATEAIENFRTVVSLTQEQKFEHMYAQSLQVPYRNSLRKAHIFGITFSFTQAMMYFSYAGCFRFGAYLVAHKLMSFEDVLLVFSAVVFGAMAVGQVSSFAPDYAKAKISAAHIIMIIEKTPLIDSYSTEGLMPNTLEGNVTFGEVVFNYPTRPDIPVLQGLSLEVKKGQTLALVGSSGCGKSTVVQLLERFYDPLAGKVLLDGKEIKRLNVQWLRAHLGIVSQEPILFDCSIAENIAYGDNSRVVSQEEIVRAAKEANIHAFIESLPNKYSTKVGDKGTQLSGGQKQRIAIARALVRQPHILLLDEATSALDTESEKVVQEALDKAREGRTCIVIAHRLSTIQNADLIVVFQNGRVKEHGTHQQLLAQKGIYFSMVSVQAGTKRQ
T1 sequence (Q9P0U3 whole entry, the tested form may be a part): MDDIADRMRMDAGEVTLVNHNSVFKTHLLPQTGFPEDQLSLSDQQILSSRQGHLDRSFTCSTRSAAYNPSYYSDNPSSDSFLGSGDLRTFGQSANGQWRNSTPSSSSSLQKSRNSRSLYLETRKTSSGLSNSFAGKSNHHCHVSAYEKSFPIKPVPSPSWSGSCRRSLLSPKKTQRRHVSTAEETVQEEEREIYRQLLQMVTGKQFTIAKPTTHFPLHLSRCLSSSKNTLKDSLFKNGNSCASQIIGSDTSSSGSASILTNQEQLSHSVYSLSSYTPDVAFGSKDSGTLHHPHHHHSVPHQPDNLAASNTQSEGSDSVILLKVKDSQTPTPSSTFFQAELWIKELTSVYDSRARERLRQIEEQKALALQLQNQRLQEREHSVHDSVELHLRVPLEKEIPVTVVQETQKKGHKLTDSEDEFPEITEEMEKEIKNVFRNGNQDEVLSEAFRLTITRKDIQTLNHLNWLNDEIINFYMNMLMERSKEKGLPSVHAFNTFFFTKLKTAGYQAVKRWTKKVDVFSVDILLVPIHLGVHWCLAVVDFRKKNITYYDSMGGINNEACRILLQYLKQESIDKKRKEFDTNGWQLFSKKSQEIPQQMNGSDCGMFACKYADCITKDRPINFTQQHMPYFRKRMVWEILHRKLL
T6 sequence (Q79MP6 whole entry): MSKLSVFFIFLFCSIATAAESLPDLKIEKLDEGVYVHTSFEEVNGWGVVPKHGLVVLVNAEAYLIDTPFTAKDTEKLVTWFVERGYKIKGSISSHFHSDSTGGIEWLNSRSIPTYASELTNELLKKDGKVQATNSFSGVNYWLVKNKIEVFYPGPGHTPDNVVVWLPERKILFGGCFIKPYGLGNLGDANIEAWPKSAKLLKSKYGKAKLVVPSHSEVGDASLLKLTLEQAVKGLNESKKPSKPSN
Chain of Protein S100-A4 (P26447 whole entry): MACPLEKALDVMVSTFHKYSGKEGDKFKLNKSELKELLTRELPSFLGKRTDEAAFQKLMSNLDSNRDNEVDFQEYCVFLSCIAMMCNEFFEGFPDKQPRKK
Chain of Beta-lactamase (Salmonella choleraesuis (strain SC-B67), UniProt Q5J463) (Q5J463 whole entry): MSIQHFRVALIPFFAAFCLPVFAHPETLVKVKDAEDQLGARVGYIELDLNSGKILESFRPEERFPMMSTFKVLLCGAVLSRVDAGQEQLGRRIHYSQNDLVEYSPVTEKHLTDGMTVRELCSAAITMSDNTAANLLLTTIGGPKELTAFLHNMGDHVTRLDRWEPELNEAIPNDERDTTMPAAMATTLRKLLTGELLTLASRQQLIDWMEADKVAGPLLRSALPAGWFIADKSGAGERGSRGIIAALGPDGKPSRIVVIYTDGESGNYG
Chain of Cytochrome P450 2C9 (P11712 whole entry): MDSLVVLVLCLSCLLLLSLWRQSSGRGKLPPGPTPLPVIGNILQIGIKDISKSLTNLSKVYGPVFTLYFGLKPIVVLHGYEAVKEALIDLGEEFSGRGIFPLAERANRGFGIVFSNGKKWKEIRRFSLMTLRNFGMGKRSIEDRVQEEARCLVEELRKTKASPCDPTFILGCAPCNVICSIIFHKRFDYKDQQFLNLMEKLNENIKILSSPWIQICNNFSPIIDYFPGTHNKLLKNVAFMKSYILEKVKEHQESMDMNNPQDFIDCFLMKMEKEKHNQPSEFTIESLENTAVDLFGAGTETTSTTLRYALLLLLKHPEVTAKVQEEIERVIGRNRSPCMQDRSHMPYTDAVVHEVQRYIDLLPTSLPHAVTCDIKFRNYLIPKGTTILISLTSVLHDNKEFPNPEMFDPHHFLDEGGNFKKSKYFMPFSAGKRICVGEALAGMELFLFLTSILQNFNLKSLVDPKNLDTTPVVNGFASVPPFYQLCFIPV
Chain of Cytochrome P450 2D6 (P10635 whole entry): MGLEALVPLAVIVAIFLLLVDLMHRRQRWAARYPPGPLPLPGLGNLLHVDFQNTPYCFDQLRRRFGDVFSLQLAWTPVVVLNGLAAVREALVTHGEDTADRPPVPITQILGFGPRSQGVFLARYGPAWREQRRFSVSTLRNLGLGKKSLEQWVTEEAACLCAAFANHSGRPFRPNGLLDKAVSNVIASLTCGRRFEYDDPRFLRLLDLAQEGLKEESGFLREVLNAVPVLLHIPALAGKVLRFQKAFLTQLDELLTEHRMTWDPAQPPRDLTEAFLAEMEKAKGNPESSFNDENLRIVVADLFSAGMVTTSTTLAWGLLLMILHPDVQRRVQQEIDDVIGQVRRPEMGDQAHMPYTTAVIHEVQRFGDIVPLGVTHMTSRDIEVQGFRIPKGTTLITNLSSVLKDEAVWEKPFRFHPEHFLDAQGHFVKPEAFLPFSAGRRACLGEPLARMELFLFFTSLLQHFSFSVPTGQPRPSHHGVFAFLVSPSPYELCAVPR
Chain of Broad substrate specificity ATP-binding cassette transporter ABCG2 (Q9UNQ0 whole entry): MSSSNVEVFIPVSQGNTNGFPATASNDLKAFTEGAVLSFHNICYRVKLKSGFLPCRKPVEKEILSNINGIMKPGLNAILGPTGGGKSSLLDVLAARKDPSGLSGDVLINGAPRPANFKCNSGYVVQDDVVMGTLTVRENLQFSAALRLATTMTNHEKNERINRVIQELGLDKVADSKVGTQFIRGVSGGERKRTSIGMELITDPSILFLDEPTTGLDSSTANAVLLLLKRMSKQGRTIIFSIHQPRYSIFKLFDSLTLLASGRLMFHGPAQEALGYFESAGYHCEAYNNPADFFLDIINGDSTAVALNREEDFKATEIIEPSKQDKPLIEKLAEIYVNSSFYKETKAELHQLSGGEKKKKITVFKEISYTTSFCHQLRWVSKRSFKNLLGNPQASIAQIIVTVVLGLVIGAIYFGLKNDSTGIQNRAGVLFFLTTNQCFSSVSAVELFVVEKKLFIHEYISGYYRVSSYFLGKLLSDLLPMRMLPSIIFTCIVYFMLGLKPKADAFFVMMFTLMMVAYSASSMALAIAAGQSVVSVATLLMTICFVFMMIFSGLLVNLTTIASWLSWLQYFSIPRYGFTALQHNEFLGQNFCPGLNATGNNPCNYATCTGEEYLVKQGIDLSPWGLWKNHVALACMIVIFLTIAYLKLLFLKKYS
Chain of Cytochrome P450 2C19 (P33261 whole entry): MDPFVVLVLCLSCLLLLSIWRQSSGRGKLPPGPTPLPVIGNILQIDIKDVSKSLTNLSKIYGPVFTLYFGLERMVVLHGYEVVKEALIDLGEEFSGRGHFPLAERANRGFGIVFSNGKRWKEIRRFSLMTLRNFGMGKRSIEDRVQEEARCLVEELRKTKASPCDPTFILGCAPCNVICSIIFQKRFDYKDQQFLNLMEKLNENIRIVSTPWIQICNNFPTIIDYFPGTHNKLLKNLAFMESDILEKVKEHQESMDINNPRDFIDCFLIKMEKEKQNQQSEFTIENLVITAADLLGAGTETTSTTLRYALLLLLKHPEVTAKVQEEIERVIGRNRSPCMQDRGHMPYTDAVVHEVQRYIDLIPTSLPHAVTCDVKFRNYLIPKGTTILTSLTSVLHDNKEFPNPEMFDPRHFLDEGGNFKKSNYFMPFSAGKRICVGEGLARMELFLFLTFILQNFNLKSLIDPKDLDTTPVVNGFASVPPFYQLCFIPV

For the compound `CC1(C)c2ccccc2N2CC(=O)N(CC(N)=O)C21C` (stereo unspecified), the AC50 on Protein S100-A4 was 1.93 µM (active).

As for `N=c1oc2ccc([N+](=O)[O-])cc2cc1C(=O)NCc1ccccc1`, the values for the IC50 in data set [1] and in [2] were 9.4 µM (active) and 2.45 µM (active), respectively.

Turning to `COc1ccc(CN2C(=O)c3ccccc3C2=O)cc1C(=O)Nc1ccccc1N1CCOCC1`, the figures for the EC50 in data set [3] and in data set [4] were 0.34 µM (inactive) and 0.428 µM (active), respectively.

As for `CCc1nc(N)nc(N)c1-c1ccc(Cl)cc1` [PYRIMETHAMINE], the EC50 at Streptokinase A was > 150 µM (not active); in [7], 3.81 µM (active); in data set [9], 3.09 µM (active); in the data set with BJ, > 133 µM (inactive); in data set [10] it was 10.5 µM (active); in [12], 0.2 µM (active). The EC50 with Streptococcus was 51.2 µM (active). Besides, the IC50 is 32.9 µM (inactive) in data set [5], > 10 µM (inactive) in data set [6], > 10 µM (inactive) in [8] and 16.5 µM (active) in data set [11]. Also, the AC50 on Cytochrome P450 2D6 is 7.94 µM (inconclusive); on Cytochrome P450 2C9, “inactive”; at Cytochrome P450 1A2, 10 µM (inconclusive); in data set [13], 23 µM (active); on Cytochrome P450 2C19 it was “inactive”.

For the compound `COc1cccc(-c2cc3nc(-c4ccccc4)cc(N4CCN(C(=O)c5ccco5)CC4)n3n2)c1`, the EC50 was 1.17 µM (active) in data set [14] and 4.32 µM (active) in data set [15].

As for `Cc1ccc(S(=O)(=O)n2[nH]c(=O)cc2NC(=O)c2cccs2)cc1`, the IC50 on Beta-lactamase [16], at Beta-lactamase [17] and on Beta-lactamase [18] was > 59.6 µM (inactive) each time.

By AC50 is commonly meant the midpoint of the concentration-response curve, whichever way the signal moves.

These data come from ChEMBL document CHEMBL1201862, “PubChem BioAssay data set” (2004).
